# Molecular target: T1, C5AR1 (Homo sapiens, UniProt P21730)
# T1 construct: host or cells: CHO-K1
# T1 sequence (P21730 1-350): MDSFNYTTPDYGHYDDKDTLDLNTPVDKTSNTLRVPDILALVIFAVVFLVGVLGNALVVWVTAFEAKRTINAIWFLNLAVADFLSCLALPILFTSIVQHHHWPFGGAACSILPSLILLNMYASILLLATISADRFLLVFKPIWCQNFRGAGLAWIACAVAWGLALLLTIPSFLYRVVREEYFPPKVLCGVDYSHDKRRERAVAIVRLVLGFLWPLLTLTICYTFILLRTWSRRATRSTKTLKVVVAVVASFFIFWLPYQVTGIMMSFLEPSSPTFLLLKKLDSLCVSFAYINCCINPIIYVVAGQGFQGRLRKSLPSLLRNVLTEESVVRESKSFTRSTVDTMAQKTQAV
# Experiment: In vitro assay: antagonism of C5a-induced beta-arrestin recruitment (PathHunter) in CHO-K1 C5AR1 beta-arrestin cell line
# Format: cell-based
# Details: antagonistic activity, 1-10 nM C5a agonist, geometric mean where several measurements, read-out: C5aR IC50
# Protocol: 5 μl Antagonist at 6-fold end concentration or DMSO control is added to assay medium and subsequently 5 μl 1-10 nM C5a agonist at 6 fold end concentration. Cells are centrifuged for 1 min at 1000 rpm and incubated for 1.5 hour in at 37° C. Plates are equilibrated at room temperature for several minutes before adding 12 μl/well Detection Reagent (PathHunter Detection Kit, DiscoverX, Cat #93-0001). Plates are centrifuged for 1 min at 1000 rpm and incubated for 45 minutes at RT before being measured on a Fluostar Optima, BMG Labtech. IC50 values are calculated from a serial dilution range of antagonist using inhouse software and given in nmol/l.
# The calculated IC50 values may fluctuate depending on the daily cellular assay performance. Fluctuations of this kind are known to those skilled in the art. Average IC50 values from several measurements are given as geometric mean values.
row,IC50,SMILES
1,17 nM,Cc1cccc(F)c1N1CCC(N2Cc3cn(CCN(C)C4CC4)nc3N(Cc3ccccc3C(F)(F)F)C2=O)CC1 [Example 73]
2,51 nM,Cn1cc2c(n1)CN(C1CCN(c3c(F)cccc3C(F)(F)F)CC1)C(=O)N2Cc1ccccc1C(F)(F)F [Example 271]
3,30 nM,CCn1cc2c(n1)CN(C1CCN(c3c(C)cccc3F)CC1)C(=O)N2Cc1ccccc1C(F)(F)F [Example 182]
4,325 nM,"CC1c2cn(C)nc2N(Cc2ccccc2C(F)(F)F)C(=O)N1C1CCN(c2c(F)cccc2Cl)CC1 (single isomer, unassigned) [Example 320]"
5,85 nM,Cc1cccc(F)c1N1CCC(N2Cc3cn(C)nc3N(Cc3nc(N(C)C)ccc3C(F)(F)F)C2=O)CC1 [Example 50]
6,10 nM,"Cc1cccc(F)c1N1CCC(N2Cc3cn(CC(C)F)nc3N(Cc3ccccc3C(F)(F)F)C2=O)CC1 (single isomer, unassigned) [Example 185]"
7,146 nM,Cc1cccc(F)c1N1CCC(N2Cc3c(cnn3C3CC3)N(Cc3ncccc3C(F)(F)F)C2=O)CC1 [Example 215]
8,10 nM,Cc1cccc(F)c1N1CCC(N2Cc3cn(C)nc3N(Cc3ncccc3C(F)(F)F)C2=O)CC1 [Example 22]
9,13 nM,CCOC(=O)N1CC[C@@H]1Cn1cc2c(n1)N(Cc1ccccc1C(F)(F)F)C(=O)N(C1CCN(c3c(C)cccc3F)CC1)C2 [Example 134]
10,11 nM,"COc1nccc(C(F)F)c1N1CCC(N2C(=O)N(Cc3ccccc3C(F)(F)F)c3n[nH]cc3C2C)CC1 (single isomer, unassigned) [Example 352]"
11,116 nM,"CC(c1ccccc1C(F)(F)F)N1C(=O)N(C2CCN(c3c(F)cccc3F)CC2)Cc2cn(C)nc21 (single isomer, unassigned) [Example 291]"
12,107 nM,CC(=O)N1CCC1Cn1cc2c(n1)N(Cc1ccccc1C(F)(F)F)C(=O)N(C1CCN(c3c(C)cccc3F)CC1)C2 (stereo not drawn) [Example 114]
13,184 nM,"COc1nccc(C)c1N1CCC(N2C(=O)N(Cc3ccccc3C(F)(F)F)c3nn(C)cc3C2C)CC1 (single isomer, unassigned) [Example 332]"
14,153 nM,Cc1nc2c(s1)N(Cc1ccccc1C(F)(F)F)C(=O)N(C1CCN(c3c(C)cccc3F)CC1)C2 [Example 90]
15,13 nM,Cc1cccc(F)c1N1CCC(N2Cc3nn(CC(C)(F)F)cc3N(Cc3ccccc3C(F)(F)F)C2=O)CC1 [Example 198]
16,14 nM,Cc1cccc(F)c1N1CCC(N2Cc3cn(C(C)C#N)nc3N(Cc3ccccc3C(F)(F)F)C2=O)CC1 (stereo not drawn) [Example 78]
17,17 nM,Cc1cccc(F)c1N1CCC(N2Cc3cn(C[C@H]4CCN4C(=O)OC(C)C)nc3N(Cc3ccccc3C(F)(F)F)C2=O)CC1 [Example 135]
18,110 nM,CC(=O)N1CCC(n2cc3c(n2)N(Cc2ccccc2C(F)(F)F)C(=O)N(C2CCN(c4c(C)cccc4F)CC2)C3)C1 (stereo not drawn) [Example 113]
19,49 nM,Cc1cccc(F)c1N1CCC(N2Cc3nn(C)cc3N(Cc3ccccc3C3CC3)C2=O)CC1 [Example 259]

row,IC50,SMILES
1,24 nM,Cc1cccc(F)c1N1CCC(N2Cc3cn(C4CN(CC(F)F)C4)nc3N(Cc3ccccc3C(F)(F)F)C2=O)CC1 [Example 106]
2,15 nM,Cc1cccc(F)c1N1CCC(N2Cc3cn(C(C)(C)C)nc3N(Cc3ccccc3C(F)(F)F)C2=O)CC1 [Example 173]
3,119 nM,Cc1cccc(F)c1N1CCC(N2Cc3cn(C4CCCCC4[N+](=O)[O-])nc3N(Cc3ccccc3C(F)(F)F)C2=O)CC1 (stereo not drawn) [Example 82]
4,13 nM,Cn1cc2c(n1)N(Cc1ccccc1C(F)(F)F)C(=O)N(C1CCN(c3c(F)cccc3F)CC1)C2 [Example 273]
5,5 nM,"COc1nccc(C)c1N1CCC(N2C(=O)N(Cc3ncccc3C(F)(F)F)c3nn(C)cc3C2C)CC1 (single isomer, unassigned) [Example 356]"
6,38 nM,COc1nccc(C)c1N1CCC(N2Cc3nn(CC(C)(F)F)cc3N(Cc3ccccc3C(F)(F)F)C2=O)CC1 [Example 219]
7,492 nM,COc1ncnc(C)c1N1CCC(N2Cc3cn(C)nc3N(Cc3ccccc3C(F)(F)F)C2=O)CC1 [Example 96]
8,37 nM,"COc1nccc(C)c1N1CCC(N2C(=O)N(Cc3ccccc3C3CC3)c3c[nH]nc3C2C)CC1 (single isomer, unassigned) [Example 274]"
9,74 nM,Cc1cccc(F)c1N1CCC(N2Cc3c(ncn3C)N(Cc3ccccc3C(F)(F)F)C2=O)CC1 [Example 16]
10,18 nM,Cc1cccc(F)c1N1CCC(N2Cc3cn(C[C@@H]4CC(F)(F)CN4)nc3N(Cc3ccccc3C(F)(F)F)C2=O)CC1 [Example 112]
11,512 nM,COc1cccnc1N1CCC(N2Cc3cn(C)nc3N(Cc3ccccc3C(F)(F)F)C2=O)CC1 [Example 70]
12,11 nM,Cc1cccc(F)c1N1CCC(N2Cc3nn(CC4(C)CC4)cc3N(Cc3ccccc3C(F)(F)F)C2=O)CC1 [Example 180]
13,351 nM,"CC(c1ccccc1C(F)(F)F)N1C(=O)N(C2CCN(c3c(F)cccc3F)CC2)Cc2cn(C)nc21 (single isomer, unassigned) [Example 290]"
14,216 nM,Cc1cccc(F)c1N1CC(N2Cc3cn(C)nc3N(Cc3ccccc3C(F)(F)F)C2=O)C1 [Example 264]
15,298 nM,"Cc1cccc(F)c1N1CCC(N2C(=O)N(Cc3ncccc3C(F)(F)F)c3nn(C)cc3C2C)CC1 (single isomer, unassigned) [Example 355]"
16,28 nM,Cn1cc2c(n1)N(Cc1ccccc1C(F)(F)F)C(=O)N(C1CCN(c3c(F)cccc3C(F)(F)F)CC1)C2 [Example 243]
17,918 nM,"CC1c2c[nH]nc2N(Cc2ccccc2C(F)(F)F)C(=O)N1C1CCN(c2c(F)cccc2C(F)F)CC1 (single isomer, unassigned) [Example 349]"
18,18 nM,Cc1cccc(F)c1N1CCC(N2Cc3cn(CC(C)C#N)nc3N(Cc3ccccc3C(F)(F)F)C2=O)CC1 (stereo not drawn) [Example 43]
19,8 nM,Cc1cccc(F)c1N1CCC(N2Cc3cn(CC4CC4)nc3N(Cc3ccccc3C(F)(F)F)C2=O)CC1 [Example 165]

row,IC50,SMILES
1,54 nM,Cc1nc2c(o1)N(Cc1ccccc1C(F)(F)F)C(=O)N(C1CCN(c3c(C)cccc3F)CC1)C2 [Example 89]
2,997 nM,"COc1nccc(C(F)F)c1N1CCC(N2C(=O)N(Cc3ccccc3C(F)(F)F)c3n[nH]cc3C2C)CC1 (single isomer, unassigned) [Example 353]"
3,9 nM,Cc1cccc(F)c1N1CCC(N2Cc3cn(C)nc3N(Cc3nc(Cl)ccc3C(F)(F)F)C2=O)CC1 [Example 35]
4,29 nM,Cn1cc2c(n1)N(Cc1ccccc1C(F)(F)F)C(=O)N(C1CCN(c3c(F)cccc3C(F)F)CC1)C2 [Example 300]
5,27 nM,Cc1cccc(F)c1N1CCC(N2Cc3cn(C[C@@H]4CC(F)(F)CN4C(=O)OC(C)(C)C)nc3N(Cc3ccccc3C(F)(F)F)C2=O)CC1 [Example 109]
6,24 nM,CC1c2cn(C3CCCCO3)nc2N(Cc2ccccc2C(F)(F)F)C(=O)N1C1CCN(c2c(F)cccc2Cl)CC1 (stereo not drawn) [Example 342]
7,30 nM,Cc1cccc(F)c1N1CCC(N2Cc3cn(CC4CCCN4C(=O)OC(C)(C)C)nc3N(Cc3ccccc3C(F)(F)F)C2=O)CC1 (stereo not drawn) [Example 97]
8,11 nM,COc1nccc(C)c1N1CCC(N2Cc3cn(COCC[Si](C)(C)C)nc3N(Cc3ccccc3C(F)(F)F)C2=O)CC1 [Example 196]
9,163 nM,Cc1cccc(F)c1N1CCC(N2Cc3cn(C4CN(S(C)(=O)=O)C4)nc3N(Cc3ccccc3C(F)(F)F)C2=O)CC1 [Example 136]
10,152 nM,Cc1cccc(F)c1N1CCC(N2Cc3cn(C(=O)OC(C)C)nc3N(Cc3ccccc3C(F)(F)F)C2=O)CC1 [Example 147]
11,74 nM,Cc1cccc(F)c1N1CCC(N2Cc3cn(C(C)(C)C(N)=O)nc3N(Cc3ccccc3C(F)(F)F)C2=O)CC1 [Example 84]
12,56 nM,Cc1cccc(F)c1N1CCC(N2Cc3cn(CCN(C)C)nc3N(Cc3ccccc3C(F)(F)F)C2=O)CC1 [Example 60]
13,492 nM,"Cc1cccc(F)c1N1CCC(N2C(=O)N(Cc3ccccc3C3CC3)c3cn(C4CC4)nc3C2C)CC1 (single isomer, unassigned) [Example 278]"
14,238 nM,"Cc1cccc(C)c1N1CCC(N2Cc3cn(C)nc3N(Cc3ccccc3C(F)(F)F)C2=O)C1 (single isomer, unassigned) [Example 58]"
15,7 nM,Cc1cccc(F)c1N1CCC(N2Cc3cn(C)nc3N(Cc3nc(F)ccc3C(F)(F)F)C2=O)CC1 [Example 36]
16,8 nM,"Cc1cccc(F)c1N1CCC(N2C(=O)N(Cc3ccccc3C(F)(F)F)c3nn(C)cc3C2C)CC1 (single isomer, unassigned) [Example 220]"
17,520 nM,"CC1c2nn(C3CC3)cc2N(Cc2ccccc2C(F)(F)F)C(=O)N1C1CCN(c2c(F)cccc2Cl)CC1 (single isomer, unassigned) [Example 327]"
18,56 nM,Cc1cccc(F)c1N1CCC(N2C(=O)N(Cc3ccccc3C(F)(F)F)c3cn(C4CCCCO4)nc3C2C)CC1 (stereo not drawn) [Example 294]
19,14 nM,Cc1cccc(F)c1N1CCC(N2Cc3cn(C[C@@H]4CCN4C(=O)OC(C)C)nc3N(Cc3ccccc3C(F)(F)F)C2=O)CC1 [Example 125]
